Test system: ZO-1, claudin-3 and occludin
Assay: Subcellular distribution of TJ proteins (immunofluorescence, TX-100 soluble/insoluble fractions)
Assay type: cell-based
Description: Approximately 1×10^4 cells were grown to confluence on 0.4 μm 12-well Transwell™ filters (Costar, Mass.). After overnight serum starvation, cells were treated with or without 50 nM CT for 60 min, fixed with methanol and incubated with primary antisera (rabbit anti-ZO-1 IgG, Zymed, Calrsbad, Calif.; Claudin-3, CTR-FLAG). Immunostaining was visualized after incubation with TRITC-labelled secondary antibody (1:500). Controls with either non-immune goat IgG or no primary antisera were used in all studies. Digital photographs were taken with Retiga 1300 camera connected to a Nikon Optiphot-2 microscope equipped for epifluorescence, the images were captured at different wavelengths for TRITC and DAPI, were given red and blue pseudo colors respectively, and analyzed using IP Lab™ image analysis program.
Confluent 100 mm plates of each PC sublines were serum starved overnight, and treated with or without 50 nM CT for various periods. Soluble extract (cytosolic) was obtained by incubating cells with 10 mM Tris-HCl, pH-7.4 (containing 150 mM NaCl, 2 mM CaCl2, protease-phosphatase inhibitors cocktail, 1% Nonidet P-40 and 1% Triton-X-100) for 30 min with occasional agitation. After washing the plates with TBS (containing protease inhibitors), the insoluble fraction (plasma membrane-associated) was scraped out from the plates with TBS containing 0.5% SDS, 1% Nonidet P-40, protease inhibitors. The triton X-100-insoluble fraction was collected after homogenizing and centrifuging at 14,000×g for 5 min at 4 C, and protein content of the supernatants was determined using Bio-Rad Reagent (Bio-Rad, Hercules, Calif.).
The lysate fractions were boiled for 5 min in 2× Laemmli buffer. The proteins were fractionated by SDS-PAGE electrophoresis, and electrically transferred to a nitrocellulose membrane. The blots were incubated the appropriate antisera followed by HRP-conjugated secondary antibody; and the blots were developed with ECL. To control for protein loading and transfer, the blots were stripped, and reprobed with either β-actin (insoluble) or α-tubulin (soluble) antibody. The same experiment was repeated two more times.
To test whether CT-mediated loss of TJ functionality is caused by disassembly of TJs, subcellular distribution of key TJ proteins was examined. Polarized PC-3CTRwt cells were treated with 50 nM CT for 30 min, and then processed for immunofluorescence with anti-FLAG (CTR), anti-ZO-1 and anti-claudin-3 antibodies.
It is known that junctional proteins are functional only when they are at cell-cell contacts on the membrane (Shin et al., 2006). Therefore, the subcellular distribution of TJ proteins was analyzed by immunoblotting TX-soluble (cytoplasmic) and TX-insoluble (membrane) fractions of cell lysates. […] The endocytosis of TJ proteins was rapid, and increased progressively throughout the experimental period of four hours. Specifically, translocation of ZO-1 from the insoluble to the soluble compartment was quicker and observed within 1 min of CT stimulus. Similar translocation of occludin was observed after ten min, and that of claudin-3 after 30 min of CT stimulus.
To test whether specific PKA inhibitors abrogate CT-induced TJ disassembly, two specific, well-characterized PKA inhibitors, mPKI and H-89, were used. PC-3CTRwt cells were treated with CT (50 nM for 30 min) in the presence of mPKI (100 nM) or H-89 (10 μM). Either of these inhibitors was added 15 min prior to the addition of CT. […]

In the case of calcitonin [CT], the “time to translocation of ZO-1” value (CT 50 nM) is reported as ≤ 1 min, the “time to translocation of claudin-3” value (CT 50 nM) is reported as 30 min and the “time to translocation of occludin” value (CT 50 nM) is reported as “after ten min”. For the same substance, the “localization of CTR, ZO-1 and claudin-3 (immunofluorescence)” value (PC-3CTRwt cells, 50 nM CT, 30 min) was “loss of these proteins at cell-cell contacts and their internalization” and the “endocytosis of ZO-1, claudin 3 or occludin” value (cells expressing CTRΔESS or ZO-1ΔPDZ3, CT 50 nM) was “could not induce endocytosis”.

Source: US9765115B2, “Inhibitors of metastasis, methods of generating such inhibitors and their therapeutic applications” (Board of Supervisors of Louisiana State University acting …, priority 2011, dated 2017)
